Here are results for twelve compounds from PubChem BioAssay (NCI).

Test systems include SF-268 CNS; EKVX NSCLC; 786-0 renal; COLO 205 colon; OVCAR-8 ovarian; HCC-2998 colon; HS 578T breast; TK-10 renal; UACC-257 melanoma; K-562 leukemia; MDA-MB-231 breast.
Holding throughout (experiment): NCI tumour cell line growth inhibition, 48 h

The structures appear in SMILES notation.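 These data come from cells grown in 96-well plates and exposed to compound for 48 hours at five concentrations. GI50 is the concentration that inhibits growth by half. TGI is the concentration that stops growth completely.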

Consider `N#CCCN(CCC#N)c1ccc(/C=C2\SC(=S)NC2=O)cc1`, for which the TGI in the experiment with SF-268 CNS, with EKVX NSCLC, in the experiment with 786-0 renal, with COLO 205 colon, with OVCAR-8 ovarian and in the experiment with HCC-2998 colon was above 100 µM in each case. Moreover, the TGI in the experiment with HS 578T breast, in the experiment on TK-10 renal, with UACC-257 melanoma, with K-562 leukemia and in the experiment with MDA-MB-231 breast was above 100 µM in each case.
In the case of `C=CCNc1nc(O)c(/C=C2\C=Nc3ncccc32)s1`, the GI50 with SF-268 CNS was 2.1 µM; with EKVX NSCLC, 3.4 µM; in the experiment on OVCAR-8 ovarian, 3.41 µM; in the experiment on HCC-2998 colon, 3.4 µM; with HS 578T breast it was 2.03 µM; in the experiment on TK-10 renal, 2.18 µM. Moreover, the results for the GI50 with UACC-257 melanoma, in the experiment with K-562 leukemia and in the experiment on MDA-MB-231 breast were 9.12 µM, 4.26 µM and 2.44 µM, respectively. Also, the TGI with SF-268 CNS is 6.92 µM; with EKVX NSCLC, above 100 µM; with OVCAR-8 ovarian, 10.3 µM; in the experiment with HCC-2998 colon, 58.5 µM; in the experiment with HS 578T breast, 9.66 µM; in the experiment with TK-10 renal, 16.8 µM. Moreover, the TGI in the experiment with UACC-257 melanoma was 21.2 µM; with K-562 leukemia, above 100 µM; with MDA-MB-231 breast, 6.63 µM.
Consider `Cn1c(=O)c2c(nc3n2CCC(=O)N3CCCCl)n(C)c1=O`, for which the TGI in the experiment with SF-268 CNS, in the experiment on EKVX NSCLC, in the experiment with 786-0 renal, with COLO 205 colon, with OVCAR-8 ovarian and in the experiment with HCC-2998 colon was above 100 µM in each case. The TGI with HS 578T breast, in the experiment with TK-10 renal, with UACC-257 melanoma, with K-562 leukemia and in the experiment with MDA-MB-231 breast was above 100 µM throughout.
Regarding `C=CC(C)(C)C1(CC(OC)OC)C(=O)N(C)c2ccccc21` (stereo not drawn), the TGI with SF-268 CNS, in the experiment with EKVX NSCLC, in the experiment with 786-0 renal, with COLO 205 colon, in the experiment on OVCAR-8 ovarian and in the experiment on HCC-2998 colon was above 25 µM each time. The TGI with HS 578T breast, in the experiment on UACC-257 melanoma, with K-562 leukemia and in the experiment on MDA-MB-231 breast was above 25 µM throughout.
With `C[C@]12C(=O)C=CCC1=CC[C@@H]1[C@@H]2[C@H]2CC3(O)C(=O)O[C@@]4(C)[C@H]5C[C@@]6(C)[C@@H]7[C@@]2(O)[C@]1(OC[C@H]6C(=O)O5)O[C@]734` (stereo partly drawn), the TGI with SF-268 CNS, in the experiment with EKVX NSCLC, in the experiment with 786-0 renal, in the experiment with COLO 205 colon, in the experiment on OVCAR-8 ovarian and with HS 578T breast was above 100 µM each time. Further, the TGI in the experiment with TK-10 renal, in the experiment on UACC-257 melanoma, in the experiment on K-562 leukemia and in the experiment on MDA-MB-231 breast was above 100 µM each time.
In the case of `Cc1ccc2n(c1)cc(-c1ccc(/C=N/NC(=N)N/N=C/c3ccc(-c4cn5cc(C)ccc5[n+]4C)cc3)cc1)[n+]2C`, the TGI was 43.8 µM in the experiment with SF-268 CNS; above 100 µM in the experiment with EKVX NSCLC; above 100 µM in the experiment on 786-0 renal; above 100 µM in the experiment on COLO 205 colon; above 100 µM in the experiment on OVCAR-8 ovarian; above 100 µM in the experiment with HCC-2998 colon. The TGI in the experiment on HS 578T breast, with TK-10 renal, in the experiment with UACC-257 melanoma and in the experiment on MDA-MB-231 breast was above 100 µM throughout.
On to `Cc1nc2ccccc2c(=O)n1NC(=O)c1ccccc1[N+](=O)[O-]`, for which the TGI in the experiment with SF-268 CNS, in the experiment on EKVX NSCLC, in the experiment with 786-0 renal, in the experiment on HCC-2998 colon, in the experiment with HS 578T breast and with TK-10 renal was above 100 µM each time. Also, the TGI in the experiment on UACC-257 melanoma, with K-562 leukemia and in the experiment on MDA-MB-231 breast was above 100 µM each time.
In the case of `COC(=O)c1ccccc1NC(=S)NN(C)C`, the TGI with EKVX NSCLC, with 786-0 renal, in the experiment on COLO 205 colon, with OVCAR-8 ovarian, in the experiment with HCC-2998 colon and in the experiment with HS 578T breast was above 100 µM throughout. The TGI in the experiment on TK-10 renal, in the experiment on UACC-257 melanoma, in the experiment with K-562 leukemia and in the experiment on MDA-MB-231 breast was above 100 µM in each case.
For `N#C/C(=C/n1c(=S)[nH]c2ccccc21)C(N)=O`, the TGI with SF-268 CNS, in the experiment on EKVX NSCLC, in the experiment with 786-0 renal, in the experiment with COLO 205 colon, with OVCAR-8 ovarian and with HCC-2998 colon was above 100 µM in each case. The TGI with HS 578T breast, in the experiment on UACC-257 melanoma, with K-562 leukemia and in the experiment on MDA-MB-231 breast was above 100 µM throughout.
Take `Cc1ccc(S(=O)(=O)NC(=O)NCCc2ccc(O)c(O)c2)cc1`: the TGI in the experiment with SF-268 CNS, in the experiment on EKVX NSCLC, with 786-0 renal, in the experiment on COLO 205 colon, in the experiment on OVCAR-8 ovarian and with HCC-2998 colon was above 100 µM each time. The TGI in the experiment on HS 578T breast, in the experiment with TK-10 renal, with K-562 leukemia and with MDA-MB-231 breast was above 100 µM in each case.
On to `c1ccc2[nH]c3c(N=NC4=NCCN4)c4ccccc4c-3nc2c1`, for which the TGI with SF-268 CNS was above 100 µM; in the experiment on EKVX NSCLC, 33.3 µM; in the experiment on 786-0 renal, 22.4 µM; in the experiment with OVCAR-8 ovarian it was 9.39 µM; in the experiment on HCC-2998 colon, 14.9 µM; in the experiment on HS 578T breast, above 100 µM. The TGI was 66.6 µM in the experiment with TK-10 renal, 36.5 µM with UACC-257 melanoma, above 100 µM in the experiment on K-562 leukemia and 32.4 µM in the experiment on MDA-MB-231 breast.
On to `COC(=O)[C@H]1[C@@H](O)[C@@]2(O)c3c(OC)cc(OC)cc3O[C@@]2(c2ccc3c(c2)OCO3)[C@@H]1c1ccccc1`, for which the TGI in the experiment on SF-268 CNS was 2.11 µM; with EKVX NSCLC it was above 33.3 µM; with 786-0 renal, 0.0944 µM; in the experiment with COLO 205 colon, 0.0686 µM; in the experiment with OVCAR-8 ovarian, above 50 µM; with HCC-2998 colon it was 5.18 µM. Moreover, the TGI in the experiment on HS 578T breast was 2.13 µM; in the experiment with UACC-257 melanoma, above 50 µM; with MDA-MB-231 breast, 0.211 µM.
